In ChEMBL document CHEMBL5338815 (J Med Chem, 2023):
Calls of active or inactive are those of the source. No cut-off for these calls is given here.

How the values were obtained:
MDA-MB-231 [1] = experiment: Reduction in H3K9me2 level in human MDA-MB-231 cells at 10 uM incubated for 48 hrs followed replaced with fresh medium measured after 24 hrs by Western blot analysis; format: functional, cell-based
[2] = AUC (0 to infinity) in ICR mouse at 2 mg/kg, ip measured upto 24 hrs by LC-MS/MS analysis; format: ADME, organism-based; parameters: dose 2 mg/kg, time < 24 hrs, route ip; settings: in vivo
[3] = biological target: Histone-lysine N-methyltransferase 2A (Homo sapiens, UniProt Q03164); experiment: Inhibition of MLL1 (unknown origin)
[4] = biological target: DNA (cytosine-5)-methyltransferase 1 (Homo sapiens, UniProt P26358); experiment: Inhibition of DNMT1 (unknown origin)
Chain of DNA (cytosine-5)-methyltransferase 1 (P26358 whole entry): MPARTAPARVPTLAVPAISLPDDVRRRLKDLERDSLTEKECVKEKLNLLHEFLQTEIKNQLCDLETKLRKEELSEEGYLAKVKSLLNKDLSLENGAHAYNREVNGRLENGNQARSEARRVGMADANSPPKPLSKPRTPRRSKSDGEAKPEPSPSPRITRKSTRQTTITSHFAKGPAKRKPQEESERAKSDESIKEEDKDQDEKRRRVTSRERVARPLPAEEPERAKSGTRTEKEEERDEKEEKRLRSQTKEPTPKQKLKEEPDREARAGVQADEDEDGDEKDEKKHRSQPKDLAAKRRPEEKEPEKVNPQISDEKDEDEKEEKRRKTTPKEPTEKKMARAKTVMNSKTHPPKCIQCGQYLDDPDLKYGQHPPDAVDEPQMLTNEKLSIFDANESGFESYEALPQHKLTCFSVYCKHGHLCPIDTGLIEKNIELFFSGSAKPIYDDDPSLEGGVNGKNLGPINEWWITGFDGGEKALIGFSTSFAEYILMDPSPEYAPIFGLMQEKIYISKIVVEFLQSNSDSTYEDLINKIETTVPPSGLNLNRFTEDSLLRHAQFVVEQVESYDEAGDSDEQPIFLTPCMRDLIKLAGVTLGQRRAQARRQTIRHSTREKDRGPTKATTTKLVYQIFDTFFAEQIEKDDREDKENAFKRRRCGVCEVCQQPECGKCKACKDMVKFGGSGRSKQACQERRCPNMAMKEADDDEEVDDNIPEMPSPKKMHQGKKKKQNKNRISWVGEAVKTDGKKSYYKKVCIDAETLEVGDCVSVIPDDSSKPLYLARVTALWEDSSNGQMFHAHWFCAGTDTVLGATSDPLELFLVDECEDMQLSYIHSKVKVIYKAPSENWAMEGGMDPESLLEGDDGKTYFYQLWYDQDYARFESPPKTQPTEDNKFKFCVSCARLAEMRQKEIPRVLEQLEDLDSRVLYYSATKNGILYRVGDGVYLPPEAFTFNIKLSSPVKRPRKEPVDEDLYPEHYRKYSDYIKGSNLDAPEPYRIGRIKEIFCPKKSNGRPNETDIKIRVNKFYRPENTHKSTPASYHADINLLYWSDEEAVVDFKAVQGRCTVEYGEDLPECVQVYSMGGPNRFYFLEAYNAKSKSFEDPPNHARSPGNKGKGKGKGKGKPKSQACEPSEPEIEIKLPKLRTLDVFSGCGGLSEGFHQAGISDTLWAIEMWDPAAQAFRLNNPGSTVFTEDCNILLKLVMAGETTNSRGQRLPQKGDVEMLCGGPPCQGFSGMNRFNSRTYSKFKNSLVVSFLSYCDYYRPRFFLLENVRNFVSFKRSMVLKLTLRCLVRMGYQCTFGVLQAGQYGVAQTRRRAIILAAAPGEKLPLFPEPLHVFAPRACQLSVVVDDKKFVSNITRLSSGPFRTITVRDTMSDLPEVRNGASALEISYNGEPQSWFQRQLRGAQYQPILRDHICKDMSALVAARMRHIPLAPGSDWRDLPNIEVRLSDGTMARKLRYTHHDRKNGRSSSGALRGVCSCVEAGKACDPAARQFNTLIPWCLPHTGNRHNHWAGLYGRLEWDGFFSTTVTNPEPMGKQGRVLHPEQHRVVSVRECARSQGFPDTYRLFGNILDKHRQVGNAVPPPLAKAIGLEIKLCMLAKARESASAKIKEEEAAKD

[5] = biological target: Histone-lysine N-methyltransferase 2B (Homo sapiens, UniProt Q9UMN6); experiment: Inhibition of MLL4 (unknown origin)
Chain of Histone-lysine N-methyltransferase 2B (Q9UMN6 whole entry): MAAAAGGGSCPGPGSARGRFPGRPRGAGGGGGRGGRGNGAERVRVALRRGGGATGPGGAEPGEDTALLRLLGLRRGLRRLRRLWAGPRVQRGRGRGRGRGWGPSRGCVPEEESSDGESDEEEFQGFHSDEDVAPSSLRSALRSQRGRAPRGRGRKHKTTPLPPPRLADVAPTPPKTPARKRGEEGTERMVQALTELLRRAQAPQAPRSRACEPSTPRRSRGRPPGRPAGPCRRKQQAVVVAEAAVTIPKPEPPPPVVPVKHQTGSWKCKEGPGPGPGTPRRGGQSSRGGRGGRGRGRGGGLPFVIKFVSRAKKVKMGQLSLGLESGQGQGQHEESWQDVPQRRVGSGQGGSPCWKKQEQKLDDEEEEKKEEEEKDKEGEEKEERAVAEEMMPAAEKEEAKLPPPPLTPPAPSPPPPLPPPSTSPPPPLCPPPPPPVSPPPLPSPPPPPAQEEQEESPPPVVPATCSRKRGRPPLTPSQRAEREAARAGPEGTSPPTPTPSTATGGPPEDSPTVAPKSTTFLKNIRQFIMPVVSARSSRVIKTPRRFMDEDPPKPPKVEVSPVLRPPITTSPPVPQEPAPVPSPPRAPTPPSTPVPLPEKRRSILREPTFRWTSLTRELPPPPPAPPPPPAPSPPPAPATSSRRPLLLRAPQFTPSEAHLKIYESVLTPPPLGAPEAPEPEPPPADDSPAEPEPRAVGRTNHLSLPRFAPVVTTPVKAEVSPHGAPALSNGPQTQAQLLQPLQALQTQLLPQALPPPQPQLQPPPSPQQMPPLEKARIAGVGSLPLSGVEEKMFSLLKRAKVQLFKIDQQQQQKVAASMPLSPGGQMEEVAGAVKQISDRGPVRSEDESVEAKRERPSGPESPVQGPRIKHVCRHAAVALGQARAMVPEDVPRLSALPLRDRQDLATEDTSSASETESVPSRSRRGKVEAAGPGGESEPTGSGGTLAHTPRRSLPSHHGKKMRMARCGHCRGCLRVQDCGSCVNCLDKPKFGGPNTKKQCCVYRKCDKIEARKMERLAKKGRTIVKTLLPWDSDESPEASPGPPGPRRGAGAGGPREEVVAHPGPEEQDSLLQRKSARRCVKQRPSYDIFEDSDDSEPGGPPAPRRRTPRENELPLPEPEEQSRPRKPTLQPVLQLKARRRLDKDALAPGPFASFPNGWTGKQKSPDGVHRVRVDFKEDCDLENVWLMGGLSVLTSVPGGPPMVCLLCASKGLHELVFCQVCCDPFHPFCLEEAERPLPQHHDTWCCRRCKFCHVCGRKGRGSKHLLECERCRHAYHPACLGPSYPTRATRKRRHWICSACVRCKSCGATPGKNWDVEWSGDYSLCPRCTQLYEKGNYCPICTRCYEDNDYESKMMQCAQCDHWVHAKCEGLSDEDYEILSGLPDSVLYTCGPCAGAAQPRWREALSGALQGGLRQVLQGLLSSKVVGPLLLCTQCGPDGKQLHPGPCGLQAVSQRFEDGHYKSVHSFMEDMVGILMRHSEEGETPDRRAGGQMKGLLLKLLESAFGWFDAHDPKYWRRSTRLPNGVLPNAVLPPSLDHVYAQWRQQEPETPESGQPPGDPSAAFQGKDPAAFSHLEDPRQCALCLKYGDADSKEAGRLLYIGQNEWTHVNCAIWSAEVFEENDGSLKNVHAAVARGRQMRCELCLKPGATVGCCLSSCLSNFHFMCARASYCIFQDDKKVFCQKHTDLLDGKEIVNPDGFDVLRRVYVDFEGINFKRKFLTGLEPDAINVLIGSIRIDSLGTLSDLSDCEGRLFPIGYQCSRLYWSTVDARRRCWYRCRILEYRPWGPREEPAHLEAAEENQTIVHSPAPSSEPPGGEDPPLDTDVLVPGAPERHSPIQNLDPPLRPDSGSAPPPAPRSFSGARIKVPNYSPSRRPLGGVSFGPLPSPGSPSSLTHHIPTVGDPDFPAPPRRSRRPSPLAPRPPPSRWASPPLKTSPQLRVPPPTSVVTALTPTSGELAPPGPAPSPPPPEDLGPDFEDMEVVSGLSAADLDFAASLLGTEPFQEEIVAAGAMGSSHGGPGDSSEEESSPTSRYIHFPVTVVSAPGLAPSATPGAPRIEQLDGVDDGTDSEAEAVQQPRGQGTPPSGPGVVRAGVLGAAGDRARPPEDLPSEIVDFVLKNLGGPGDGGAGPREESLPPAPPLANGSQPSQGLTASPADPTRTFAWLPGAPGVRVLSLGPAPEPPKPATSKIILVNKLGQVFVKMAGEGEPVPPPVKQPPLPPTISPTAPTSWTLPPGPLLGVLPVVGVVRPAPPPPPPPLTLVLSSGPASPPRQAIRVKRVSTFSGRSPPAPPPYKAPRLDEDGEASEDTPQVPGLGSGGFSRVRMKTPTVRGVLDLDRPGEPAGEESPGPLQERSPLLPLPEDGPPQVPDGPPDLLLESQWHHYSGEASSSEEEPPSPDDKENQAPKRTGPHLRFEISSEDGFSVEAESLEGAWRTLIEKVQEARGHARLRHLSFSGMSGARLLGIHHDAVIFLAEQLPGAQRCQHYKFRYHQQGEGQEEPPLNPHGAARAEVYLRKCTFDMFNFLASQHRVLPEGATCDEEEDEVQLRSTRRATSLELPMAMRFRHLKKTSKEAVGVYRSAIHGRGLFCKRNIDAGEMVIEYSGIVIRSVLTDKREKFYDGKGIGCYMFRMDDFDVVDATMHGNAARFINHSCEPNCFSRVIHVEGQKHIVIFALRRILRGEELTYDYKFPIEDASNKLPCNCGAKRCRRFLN

PANC-1 [6] = experiment: In vivo antitumor activity against human PANC-1 cells xenografted in Balb/c mouse model assessed as tumor growth inhibition at 2 mg/kg, ip treated for 22 days relative to control; format: functional; settings: PANC-1, 528 h, time 22 day, read-out: TGI
[7] = Metabolic stability in mouse liver microsomes assessed as half life at 0.1 uM measured upto 60 mins by LC-MS/MS analysis; format: ADME, Microsome
MDA-MB-231 [8] = experiment: Reduction in H3K9me2 level in human MDA-MB-231 cells at 10 uM by Western blot analysis; format: functional, cell-based; settings: time 24-96 hrs, TDE = time-dependent effect
[9] = Toxicity in Balb/c mouse xenografted with human PANC-1 cells assessed as body weight change at 2 mg/kg, ip treated for 22 days relative to control; format: organism-based; settings: in vivo, 528 h, time 22 day
[10] = biological target: T1, Histone-lysine N-methyltransferase EHMT2 (Homo sapiens) (UniProt Q96KQ7); experiment: Binding affinity to G9a in human MDA-MB-231 cells assessed as protein stabilization at 37 to 41.7 degC at 10 uM incubated for 15 hrs in presence of G9a antibody by CETSA; format: cell-based
T1 sequence (whole entry): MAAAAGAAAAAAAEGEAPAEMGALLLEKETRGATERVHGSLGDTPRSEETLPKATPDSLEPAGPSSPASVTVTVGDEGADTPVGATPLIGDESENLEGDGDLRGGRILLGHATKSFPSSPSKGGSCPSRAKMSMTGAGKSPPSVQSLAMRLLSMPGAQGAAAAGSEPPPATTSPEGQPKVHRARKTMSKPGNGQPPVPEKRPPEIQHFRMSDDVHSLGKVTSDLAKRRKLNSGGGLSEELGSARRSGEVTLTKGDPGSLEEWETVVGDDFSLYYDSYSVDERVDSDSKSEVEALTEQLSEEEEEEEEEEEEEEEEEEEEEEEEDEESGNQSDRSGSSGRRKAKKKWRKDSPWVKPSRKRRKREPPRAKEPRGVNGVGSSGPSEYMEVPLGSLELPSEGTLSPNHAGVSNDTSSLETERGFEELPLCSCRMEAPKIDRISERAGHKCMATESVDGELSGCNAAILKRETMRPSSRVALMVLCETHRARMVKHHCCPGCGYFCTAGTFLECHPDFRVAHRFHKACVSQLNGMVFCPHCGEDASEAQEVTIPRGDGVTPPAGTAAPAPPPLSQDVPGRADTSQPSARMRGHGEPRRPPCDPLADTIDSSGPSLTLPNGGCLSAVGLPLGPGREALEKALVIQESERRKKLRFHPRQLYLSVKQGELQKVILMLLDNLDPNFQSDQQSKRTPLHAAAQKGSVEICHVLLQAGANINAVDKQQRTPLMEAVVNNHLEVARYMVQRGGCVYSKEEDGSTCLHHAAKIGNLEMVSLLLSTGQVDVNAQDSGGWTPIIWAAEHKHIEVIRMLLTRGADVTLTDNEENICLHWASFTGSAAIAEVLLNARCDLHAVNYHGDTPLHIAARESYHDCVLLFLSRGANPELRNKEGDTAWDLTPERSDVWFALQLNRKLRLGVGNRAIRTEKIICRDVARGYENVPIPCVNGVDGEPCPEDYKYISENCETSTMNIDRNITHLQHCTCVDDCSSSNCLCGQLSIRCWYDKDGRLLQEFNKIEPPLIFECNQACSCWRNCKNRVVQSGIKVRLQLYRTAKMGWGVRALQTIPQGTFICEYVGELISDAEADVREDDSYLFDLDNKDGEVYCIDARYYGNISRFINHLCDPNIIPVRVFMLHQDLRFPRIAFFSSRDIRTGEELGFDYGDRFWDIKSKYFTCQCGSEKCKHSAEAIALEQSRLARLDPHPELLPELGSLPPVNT

[11] = AUC (0 to t) in ICR mouse at 2 mg/kg, ip measured upto 24 hrs by LC-MS/MS analysis; format: ADME, organism-based; parameters: dose 2 mg/kg, time < 24 hrs, route ip; settings: in vivo
PANC-1 [12] = experiment: Antiproliferative activity against human PANC-1 cells assessed as cell viability measured after 24 hrs by CCK-8 assay; format: functional, cell-based; settings: PANC-1, 24 h

- AUC(0-inf) [2]: 214 ng·h/mL
- IC50 [3]: > 20 µM
- IC50 [4]: > 20 µM
- IC50 [5]: > 20 µM
- half-life at 0.1 µM [7]: 1.19 h
- Activity [10]: Active
- AUC(0-t) at 24 h [11]: 208 ng·h/mL
- IC50 (PANC-1 [12]): 2.68 µM
Compound: C=CC(=O)N(C)c1nc(NC2CCN(C)CC2)c2cc(OC)c(OCCCN3CCCC3)cc2n1
- inhibition (MDA-MB-231 [1]): Active
- inhibition in vivo at 2 mg/kg (PANC-1 [6]): 52.2%
- inhibition (MDA-MB-231 [8]): Tde
- Activity [9]: Non-Toxic
